Measured values: ChEMBL document CHEMBL1201862, “PubChem BioAssay data set” (2004)
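Grown in 96-well plates, cells were treated for 48 hours with each compound at five concentrations. Insufficient inhibition: endpoint recorded as highest concentration tested. The concentration for 50% growth inhibition is given as GI50.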 The source made the active and inactive calls. No stated cut-off is given here; in the data, active = GI50 up to about 1.1 µM and inactive = higher.

What was measured:
Assay in all cases: growth of human tumour cells (NCI), 48 h
786-0 = system: 786-0
A549 = system: A549
ACHN = system: ACHN
CAKI-1 = system: CAKI-1
CCRF-CEM = system: CCRF-CEM
COLO 205 = system: COLO 205
DLD-1 = system: DLD-1
DMS-114 = system: DMS-114
DMS-273 = system: DMS-273
EKVX = system: EKVX
HCT-15 = system: HCT-15
HL-60 = system: HL-60
HOP-62 = system: HOP-62
HOP-92 = system: HOP-92
HT-29 = system: HT-29
IGROV-1 = system: IGROV-1
K562 = system: K562
KM-20L2 = system: KM-20L2
KM12 = system: KM12
LOX IMVI = system: LOX IMVI
LXFL 529 = system: LXFL 529
M14 = system: M14
M19-MEL = system: M19-MEL
NCI-H226 = system: NCI-H226
NCI-H23 = system: NCI-H23
NCI-H460 = system: NCI-H460
NCI-H522 = system: NCI-H522
OVCAR-3 = system: OVCAR-3
OVCAR-4 = system: OVCAR-4
OVCAR-5 = system: OVCAR-5
OVCAR-8 = system: OVCAR-8
RPMI-8226 = system: RPMI-8226
RXF 393 = system: RXF 393
SF-268 = system: SF-268
SF-295 = system: SF-295
SF-539 = system: SF-539
SK-MEL-28 = system: SK-MEL-28
SK-MEL-2 = system: SK-MEL-2
SK-MEL-5 = system: SK-MEL-5
SK-OV-3 = system: SK-OV-3
SNB-19 = system: SNB-19
SNB-75 = system: SNB-75
SNB-78 = system: SNB-78
SR = system: SR
SW-620 = system: SW-620
TK-10 = system: TK-10
U-251 = system: U-251
UACC-257 = system: UACC-257
UACC-62 = system: UACC-62
UO-31 = system: UO-31
XF498 = system: XF498
HCC 2998 = system: HCC 2998
HOP-18 = system: HOP-18
MOLT-4 = system: MOLT-4
Malme-3M = system: Malme-3M
SN12C = system: SN12C
A498 = system: A498
HCT-116 = system: HCT-116

SMILES: Cc1ccn2c(c1)nc1nc3ccccc3nc12
- GI50 (786-0): > 100 µM (inactive)
- GI50 (A549): > 100 µM (inactive)
- GI50 (ACHN): 96.6 µM (inactive)
- GI50 (CAKI-1): > 100 µM (inactive)
- GI50 (CCRF-CEM): > 100 µM (inactive)
- GI50 (COLO 205): > 100 µM (inactive)
- GI50 (DLD-1): > 100 µM (inactive)
- GI50 (DMS-114): > 100 µM (inactive)
- GI50 (DMS-273): > 100 µM (inactive)
- GI50 (EKVX): > 100 µM (inactive)
- GI50 (HCT-15): > 100 µM
- GI50 (HL-60): > 100 µM (inactive)
- GI50 (HOP-62): > 100 µM (inactive)
- GI50 (HOP-92): > 100 µM (inactive)
- GI50 (HT-29): > 100 µM (inactive)
- GI50 (IGROV-1): > 100 µM (inactive)
- GI50 (K562): > 100 µM (inactive)
- GI50 (KM-20L2): > 100 µM (inactive)
- GI50 (KM12): > 100 µM (inactive)
- GI50 (LOX IMVI): > 100 µM (inactive)
- GI50 (LXFL 529): > 100 µM (inactive)
- GI50 (M14): > 100 µM (inactive)
- GI50 (M19-MEL): > 100 µM (inactive)
- GI50 (NCI-H226): > 100 µM (inactive)
- GI50 (NCI-H23): > 100 µM (inactive)
- GI50 (NCI-H460): > 100 µM (inactive)
- GI50 (NCI-H522): > 100 µM (inactive)
- GI50 (OVCAR-3): > 100 µM (inactive)
- GI50 (OVCAR-4): > 100 µM (inactive)
- GI50 (OVCAR-5): > 100 µM (inactive)
- GI50 (OVCAR-8): > 100 µM (inactive)
- GI50 (RPMI-8226): > 100 µM (inactive)
- GI50 (RXF 393): > 100 µM (inactive)
- GI50 (SF-268): > 100 µM (inactive)
- GI50 (SF-295): > 100 µM (inactive)
- GI50 (SF-539): > 100 µM (inactive)
- GI50 (SK-MEL-28): > 100 µM (inactive)
- GI50 (SK-MEL-2): > 100 µM (inactive)
- GI50 (SK-MEL-5): > 100 µM (inactive)
- GI50 (SK-OV-3): 59.6 µM (inactive)
- GI50 (SNB-19): > 100 µM (inactive)
- GI50 (SNB-75): 78.5 µM (inactive)
- GI50 (SNB-78): > 100 µM (inactive)
- GI50 (SR): > 100 µM (inactive)
- GI50 (SW-620): > 100 µM (inactive)
- GI50 (TK-10): > 100 µM (inactive)
- GI50 (U-251): > 100 µM (inactive)
- GI50 (UACC-257): > 100 µM (inactive)
- GI50 (UACC-62): > 100 µM (inactive)
- GI50 (UO-31): > 100 µM (inactive)
- GI50 (XF498): > 100 µM (inactive)

SMILES: Cc1cccc2c1C(=O)OC2(C)c1cccc2ccccc12 (configuration not stated)
- GI50 (786-0): 30.9 µM (inactive)
- GI50 (A549): 35.2 µM (inactive)
- GI50 (ACHN): 30.6 µM (inactive)
- GI50 (CAKI-1): 19.8 µM (inactive)
- GI50 (CCRF-CEM): 17.5 µM (inactive)
- GI50 (DLD-1): 30.5 µM (inactive)
- GI50 (DMS-114): 43.1 µM (inactive)
- GI50 (EKVX): 35.7 µM (inactive)
- GI50 (HCC 2998): 20.9 µM (inactive)
- GI50 (HCT-15): 29 µM
- GI50 (HL-60): 16.4 µM (inactive)
- GI50 (HOP-18): > 100 µM (inactive)
- GI50 (HOP-92): 18.6 µM (inactive)
- GI50 (HT-29): 30.5 µM (inactive)
- GI50 (K562): 16.4 µM (inactive)
- GI50 (KM-20L2): 24.4 µM (inactive)
- GI50 (KM12): 27.6 µM (inactive)
- GI50 (LOX IMVI): 30.3 µM (inactive)
- GI50 (M14): 13 µM (inactive)
- GI50 (M19-MEL): 50 µM (inactive)
- GI50 (MOLT-4): 26.2 µM (inactive)
- GI50 (Malme-3M): 25.5 µM (inactive)
- GI50 (NCI-H226): 26.5 µM (inactive)
- GI50 (NCI-H23): 30.8 µM (inactive)
- GI50 (NCI-H460): 29.7 µM (inactive)
- GI50 (NCI-H522): 16.8 µM (inactive)
- GI50 (OVCAR-3): 26.9 µM (inactive)
- GI50 (OVCAR-4): 22.4 µM (inactive)
- GI50 (OVCAR-5): > 100 µM (inactive)
- GI50 (OVCAR-8): 32.3 µM (inactive)
- GI50 (RPMI-8226): 25.4 µM (inactive)
- GI50 (RXF 393): 22.6 µM (inactive)
- GI50 (SF-268): 28.4 µM (inactive)
- GI50 (SF-295): 32.1 µM (inactive)
- GI50 (SK-MEL-28): 41.3 µM (inactive)
- GI50 (SK-MEL-2): 23.8 µM (inactive)
- GI50 (SK-MEL-5): 16.4 µM (inactive)
- GI50 (SN12C): 21.2 µM (inactive)
- GI50 (SNB-19): 78.5 µM (inactive)
- GI50 (SNB-75): 9.71 µM (inactive)
- GI50 (SNB-78): 73.6 µM (inactive)
- GI50 (SR): 23.2 µM (inactive)
- GI50 (SW-620): 30.3 µM (inactive)
- GI50 (TK-10): 29.5 µM (inactive)
- GI50 (U-251): 26.2 µM (inactive)
- GI50 (UACC-257): 34.2 µM (inactive)
- GI50 (UO-31): 32.8 µM (inactive)
- GI50 (XF498): 4.86 µM (inactive)

SMILES: Cn1c(=O)c2nc(N3CCOCC3)cnc2n(C)c1=O
- GI50 (A498): > 100 µM (inactive)
- GI50 (A549): > 100 µM (inactive)
- GI50 (ACHN): > 100 µM (inactive)
- GI50 (CAKI-1): > 100 µM (inactive)
- GI50 (CCRF-CEM): > 100 µM (inactive)
- GI50 (COLO 205): > 100 µM (inactive)
- GI50 (DLD-1): > 100 µM (inactive)
- GI50 (DMS-114): > 100 µM (inactive)
- GI50 (DMS-273): > 100 µM (inactive)
- GI50 (EKVX): > 100 µM (inactive)
- GI50 (HCC 2998): > 100 µM (inactive)
- GI50 (HCT-116): > 100 µM (inactive)
- GI50 (HCT-15): > 100 µM
- GI50 (HL-60): > 100 µM (inactive)
- GI50 (HOP-62): > 100 µM (inactive)
- GI50 (HOP-92): > 100 µM (inactive)
- GI50 (HT-29): > 100 µM (inactive)
- GI50 (IGROV-1): > 100 µM (inactive)
- GI50 (K562): > 100 µM (inactive)
- GI50 (KM-20L2): > 100 µM (inactive)
- GI50 (KM12): > 100 µM (inactive)
- GI50 (LXFL 529): > 100 µM (inactive)
- GI50 (M14): > 100 µM (inactive)
- GI50 (M19-MEL): > 100 µM (inactive)
- GI50 (MOLT-4): > 100 µM (inactive)
- GI50 (Malme-3M): > 100 µM (inactive)
- GI50 (NCI-H23): > 100 µM (inactive)
- GI50 (NCI-H460): > 100 µM (inactive)
- GI50 (NCI-H522): > 100 µM (inactive)
- GI50 (OVCAR-3): > 100 µM (inactive)
- GI50 (OVCAR-4): > 100 µM (inactive)
- GI50 (OVCAR-5): > 100 µM (inactive)
- GI50 (OVCAR-8): > 100 µM (inactive)
- GI50 (RPMI-8226): > 100 µM (inactive)
- GI50 (SF-268): > 100 µM (inactive)
- GI50 (SF-295): > 100 µM (inactive)
- GI50 (SF-539): > 100 µM (inactive)
- GI50 (SK-MEL-28): > 100 µM (inactive)
- GI50 (SK-MEL-2): > 100 µM (inactive)
- GI50 (SK-MEL-5): > 100 µM (inactive)
- GI50 (SK-OV-3): > 100 µM (inactive)
- GI50 (SN12C): > 100 µM (inactive)
- GI50 (SNB-19): > 100 µM (inactive)
- GI50 (SNB-75): > 100 µM (inactive)
- GI50 (SNB-78): > 100 µM (inactive)
- GI50 (SR): > 100 µM (inactive)
- GI50 (SW-620): > 100 µM (inactive)
- GI50 (TK-10): > 100 µM (inactive)
- GI50 (U-251): > 100 µM (inactive)
- GI50 (UACC-257): > 100 µM (inactive)
- GI50 (UACC-62): > 100 µM (inactive)
- GI50 (UO-31): > 100 µM (inactive)
- GI50 (XF498): > 100 µM (inactive)
